According to patent US20240391965A1, “STAPLED ANTIMICROBIAL PEPTIDES (STAMPS) AND USES THEREOF” (Lytica Therapeutics, Inc., priority 2021, published 2024):
≈ marks a conversion by molar mass, not a printed value. Like-named read-outs stand apart in the source and are kept apart here. Starred links: 1 amine or outer side, 2 acyl side, 3 side chain; linkers in the order of their positions; H or OH if unused. Positions of bridges follow the written chain, without caps; N, C: chain ends. Residues, ends and D or L forms follow the SMILES beside them. 2,2'Bipyridine(5,5'-diCH2) = c1cc(-c2ccc(C[*:2])cn2)ncc1C[*:1]; Biphenyl(4,4'-CH2)2 = c1cc(-c2ccc(C[*:2])cc2)ccc1C[*:1]; Naphthalene(2,6-diCH2) = c1cc2cc(C[*:2])ccc2cc1C[*:1]; mXylylene = c1cc(C[*:1])cc(C[*:2])c1; pXylylene = c1cc(C[*:2])ccc1C[*:1]; X1 = C(=CC[*:2])C[*:1]

Test: 48 hours cytotoxicity assay (CellTiter-Glo), liver toxicity
Type: cell-based, human
Text: In some embodiments, a peptide provided herein has hepatic toxicity that is at least 10% (e.g., at least 15%, at least 20%, at least 25%, at least 30%, at least 35%, at least 40%, at least 45%, at least 50%, at least 55%, at least 60%, at least 65%, at least 65%, at least 70%, at least 75%, at least 80%, at least 85%, at least 90%, at least 95%, at least 99%) lower than the hepatic toxicity of the reference. The hepatic toxicity of a peptide can be measured in vitro using a human liver cells (e.g., HepG2) toxicity assay.
Cell culture: RPTEC were maintained in MEM media supplemented with growth factors. HEPG2 cell line was maintained in Eagle's Minimum Essential Medium (EMEM) supplemented with fetal bovine serum to a final concentration of 10%.
48 hours cytotoxicity assay: Cells were plated in a 96-well format, and after 4 hour incubation to allow attachment, serial dilutions of StAMPs from a 5 mg/mL water stock, or vehicle, were then added to the cells in a final volume of 100 μl. After incubating at 37° C. for 48 hours, 100 μl of CellTiter-Glo® reagent was added to the cells, and the plates were incubated 10 minutes at room temperature. Luminescence was then measured on a microplate reader.
Renal toxicity was measured after 90 minutes of incubation, while liver toxicity was measured after 48 hours of incubation with StAMPs. N/A=not tested.

[1] = 48 hours of incubation, CellTiter-Glo, read-out: Inhibitory Concentration at 50% Cytotoxicity (IC50) Human Liver Cells (HepG2)

CC[C@H](C)[C@H](NC(=O)[C@H](CC(C)C)NC(=O)[C@H](CC(C)C)NC(=O)[C@H](CC(N)=O)NC(=O)[C@H](CCCCN)NC(=O)[C@@H](NC(=O)[C@H](CCCCN)NC(=O)[C@H](CCCCN)NC(=O)CNC(=O)[C@H](C)NC(=O)[C@@H]1CSCc2cccc(c2)CSC[C@H](NC(=O)CN)C(=O)N[C@@H](Cc2ccccc2)C(=O)N[C@@H](CO)C(=O)N[C@@H](CCCCN)C(=O)N1)[C@@H](C)CC)C(=O)N[C@@H](CO)C(=O)NCC(=O)N[C@@H](CC(C)C)C(=O)N[C@@H](CCCCN)C(=O)NCC(N)=O [compound 46] (H-GCFSKCAGKKIKNLLISGLKG-NH2; linker 2-6 via mXylylene; N-terminus assumed)
IC50: 201 µg/mL (≈ 88.7 µM)

CC[C@H](C)[C@H](NC(=O)[C@H](CC(C)C)NC(=O)[C@H](CC(C)C)NC(=O)[C@H](CC(N)=O)NC(=O)[C@H](CCCCN)NC(=O)[C@@H](NC(=O)[C@H](CCCCN)NC(=O)[C@H](CCCCN)NC(=O)CNC(=O)[C@H](C)NC(=O)[C@@H]1CSCc2ccc(cc2)CSC[C@H](NC(=O)CN)C(=O)N[C@@H](Cc2ccccc2)C(=O)N[C@@H](CO)C(=O)N[C@@H](CCCCN)C(=O)N1)[C@@H](C)CC)C(=O)N[C@@H](CO)C(=O)NCC(=O)N[C@@H](CC(C)C)C(=O)N[C@@H](CCCCN)C(=O)NCC(N)=O [compound 47] (H-GCFSKCAGKKIKNLLISGLKG-NH2; linker 2-6 via pXylylene; N-terminus assumed)
IC50: 402 µg/mL (≈ 177 µM)

CC[C@H](C)[C@H](NC(=O)[C@H](CC(C)C)NC(=O)[C@H](CC(C)C)NC(=O)[C@H](CC(N)=O)NC(=O)[C@H](CCCCN)NC(=O)[C@@H](NC(=O)[C@H](CCCCN)NC(=O)[C@H](CCCCN)NC(=O)CNC(=O)[C@H](C)NC(=O)[C@@H]1CSCC=CCSC[C@H](NC(=O)CN)C(=O)N[C@@H](Cc2ccccc2)C(=O)N[C@@H](CO)C(=O)N[C@@H](CCCCN)C(=O)N1)[C@@H](C)CC)C(=O)N[C@@H](CO)C(=O)NCC(=O)N[C@@H](CC(C)C)C(=O)N[C@@H](CCCCN)C(=O)NCC(N)=O [compound 48] (H-GCFSKCAGKKIKNLLISGLKG-NH2; linker 2-6 via X1; N-terminus assumed)
IC50: > 800 µg/mL

CC[C@H](C)[C@H](NC(=O)[C@H](CC(C)C)NC(=O)[C@H](CC(C)C)NC(=O)[C@H](CC(N)=O)NC(=O)[C@H](CCCCN)NC(=O)[C@@H](NC(=O)[C@H](CCCCN)NC(=O)[C@H](CCCCN)NC(=O)[C@@H]1CSCc2ccc(cc2)-c2ccc(cc2)CSC[C@H](N)C(=O)N[C@@H]([C@@H](C)CC)C(=O)N[C@@H](Cc2ccccc2)C(=O)N[C@@H](CO)C(=O)N[C@@H](CCCCN)C(=O)N[C@@H](CC(C)C)C(=O)N[C@@H](C)C(=O)N1)[C@@H](C)CC)C(=O)N[C@@H](CO)C(=O)NCC(=O)N[C@@H](CC(C)C)C(=O)N[C@@H](CCCCN)C(=O)NCC(N)=O [compound 51] (H-CIFSKLACKKIKNLLISGLKG-NH2; linker 1-8 via Biphenyl(4,4'-CH2)2; N-terminus assumed)
IC50: 102 µg/mL (≈ 41.5 µM)

CC[C@H](C)[C@H](NC(=O)CN)C(=O)N[C@@H](Cc1ccccc1)C(=O)N[C@H]1CSCc2ccc(cc2)-c2ccc(cc2)CSC[C@@H](C(=O)N[C@@H](CCCCN)C(=O)N[C@@H](CC(N)=O)C(=O)N[C@@H](CC(C)C)C(=O)N[C@@H](CC(C)C)C(=O)N[C@H](C(=O)N[C@@H](CO)C(=O)NCC(=O)N[C@@H](CC(C)C)C(=O)N[C@@H](CCCCN)C(=O)NCC(N)=O)[C@@H](C)CC)NC(=O)[C@H](CCCCN)NC(=O)[C@H](CCCCN)NC(=O)CNC(=O)[C@H](C)NC(=O)[C@H](CC(C)C)NC(=O)[C@H](CCCCN)NC1=O [compound 59] (H-GIFCKLAGKKCKNLLISGLKG-NH2; linker 4-11 via Biphenyl(4,4'-CH2)2; N-terminus assumed)
IC50: 23 µg/mL (≈ 9.71 µM)

CC[C@H](C)[C@H](NC(=O)CN)C(=O)N[C@@H](Cc1ccccc1)C(=O)N[C@@H](CO)C(=O)N[C@H]1CSCc2ccc(nc2)-c2ccc(cn2)CSC[C@@H](C(=O)N[C@@H](CC(N)=O)C(=O)N[C@@H](CC(C)C)C(=O)N[C@@H](CC(C)C)C(=O)N[C@H](C(=O)N[C@@H](CO)C(=O)NCC(=O)N[C@@H](CC(C)C)C(=O)N[C@@H](CCCCN)C(=O)NCC(N)=O)[C@@H](C)CC)NC(=O)[C@H]([C@@H](C)CC)NC(=O)[C@H](CCCCN)NC(=O)[C@H](CCCCN)NC(=O)CNC(=O)[C@H](C)NC(=O)[C@H](CC(C)C)NC1=O [compound 60] (H-GIFSCLAGKKICNLLISGLKG-NH2; linker 5-12 via 2,2'Bipyridine(5,5'-diCH2))
IC50 [1]: 29 µg/mL (≈ 12.5 µM)

CC[C@H](C)[C@H](NC(=O)CN)C(=O)N[C@@H](Cc1ccccc1)C(=O)N[C@@H](CO)C(=O)N[C@H]1CSCc2ccc(cc2)-c2ccc(cc2)CSC[C@@H](C(=O)N[C@@H](CC(N)=O)C(=O)N[C@@H](CC(C)C)C(=O)N[C@@H](CC(C)C)C(=O)N[C@H](C(=O)N[C@@H](CO)C(=O)NCC(=O)N[C@@H](CC(C)C)C(=O)N[C@@H](CCCCN)C(=O)NCC(N)=O)[C@@H](C)CC)NC(=O)[C@H]([C@@H](C)CC)NC(=O)[C@H](CCCCN)NC(=O)[C@H](CCCCN)NC(=O)CNC(=O)[C@H](C)NC(=O)[C@H](CC(C)C)NC1=O [compound 61] (H-GIFSCLAGKKICNLLISGLKG-NH2; linker 5-12 via Biphenyl(4,4'-CH2)2; N-terminus assumed)
IC50: > 200 µg/mL

CC[C@H](C)[C@H](NC(=O)CN)C(=O)N[C@@H](Cc1ccccc1)C(=O)N[C@@H](CO)C(=O)N[C@H]1CSCc2ccc3cc(ccc3c2)CSC[C@@H](C(=O)N[C@@H](CC(N)=O)C(=O)N[C@@H](CC(C)C)C(=O)N[C@@H](CC(C)C)C(=O)N[C@H](C(=O)N[C@@H](CO)C(=O)NCC(=O)N[C@@H](CC(C)C)C(=O)N[C@@H](CCCCN)C(=O)NCC(N)=O)[C@@H](C)CC)NC(=O)[C@H]([C@@H](C)CC)NC(=O)[C@H](CCCCN)NC(=O)[C@H](CCCCN)NC(=O)CNC(=O)[C@H](C)NC(=O)[C@H](CC(C)C)NC1=O [compound 62] (H-GIFSCLAGKKICNLLISGLKG-NH2; linker 5-12 via Naphthalene(2,6-diCH2))
IC50 [1]: 81 µg/mL (≈ 35.4 µM)

CC[C@H](C)[C@H](NC(=O)CN)C(=O)N[C@@H](Cc1ccccc1)C(=O)N[C@@H](CO)C(=O)N[C@@H](CCCCN)C(=O)N[C@H]1CSCc2ccc(nc2)-c2ccc(cn2)CSC[C@@H](C(=O)N[C@@H](CC(C)C)C(=O)N[C@@H](CC(C)C)C(=O)N[C@H](C(=O)N[C@@H](CO)C(=O)NCC(=O)N[C@@H](CC(C)C)C(=O)N[C@@H](CCCCN)C(=O)NCC(N)=O)[C@@H](C)CC)NC(=O)[C@H](CCCCN)NC(=O)[C@H]([C@@H](C)CC)NC(=O)[C@H](CCCCN)NC(=O)[C@H](CCCCN)NC(=O)CNC(=O)[C@H](C)NC1=O [compound 63] (H-GIFSKCAGKKIKCLLISGLKG-NH2; linker 6-13 via 2,2'Bipyridine(5,5'-diCH2))
IC50 [1]: 44 µg/mL (≈ 18.8 µM)

CC[C@H](C)[C@H](NC(=O)CN)C(=O)N[C@@H](Cc1ccccc1)C(=O)N[C@@H](CO)C(=O)N[C@@H](CCCCN)C(=O)N[C@@H](CC(C)C)C(=O)N[C@@H](C)C(=O)N[C@H]1CSCc2ccc(cc2)-c2ccc(cc2)CSC[C@@H](C(=O)N[C@H](C(=O)N[C@@H](CO)C(=O)NCC(=O)N[C@@H](CC(C)C)C(=O)N[C@@H](CCCCN)C(=O)NCC(N)=O)[C@@H](C)CC)NC(=O)[C@H](CC(C)C)NC(=O)[C@H](CC(N)=O)NC(=O)[C@H](CCCCN)NC(=O)[C@H]([C@@H](C)CC)NC(=O)[C@H](CCCCN)NC(=O)[C@H](CCCCN)NC1=O [compound 68] (H-GIFSKLACKKIKNLCISGLKG-NH2; linker 8-15 via Biphenyl(4,4'-CH2)2; N-terminus assumed)
IC50: 8 µg/mL (≈ 3.33 µM)

CC[C@H](C)[C@H](NC(=O)CN)C(=O)N[C@@H](Cc1ccccc1)C(=O)N[C@@H](CO)C(=O)N[C@@H](CCCCN)C(=O)N[C@@H](CC(C)C)C(=O)N[C@@H](C)C(=O)NCC(=O)N[C@H]1CSCc2ccc(cc2)-c2ccc(cc2)CSC[C@@H](C(=O)N[C@@H](CO)C(=O)NCC(=O)N[C@@H](CC(C)C)C(=O)N[C@@H](CCCCN)C(=O)NCC(N)=O)NC(=O)[C@H](CC(C)C)NC(=O)[C@H](CC(C)C)NC(=O)[C@H](CC(N)=O)NC(=O)[C@H](CCCCN)NC(=O)[C@H]([C@@H](C)CC)NC(=O)[C@H](CCCCN)NC1=O [compound 70] (H-GIFSKLAGCKIKNLLCSGLKG-NH2; linker 9-16 via Biphenyl(4,4'-CH2)2; N-terminus assumed)
IC50: 23 µg/mL (≈ 9.88 µM)

CC[C@H](C)[C@H](NC(=O)CN)C(=O)N[C@@H](Cc1ccccc1)C(=O)N[C@@H](CO)C(=O)N[C@@H](CCCCN)C(=O)N[C@@H](CC(C)C)C(=O)N[C@@H](C)C(=O)NCC(=O)N[C@@H](CCCCN)C(=O)N[C@@H](CCCCN)C(=O)N[C@H]1CSCc2ccc(cc2)-c2ccc(cc2)CSC[C@@H](C(=O)N[C@@H](CC(C)C)C(=O)N[C@@H](CCCCN)C(=O)NCC(N)=O)NC(=O)[C@H](CO)NC(=O)[C@H]([C@@H](C)CC)NC(=O)[C@H](CC(C)C)NC(=O)[C@H](CC(C)C)NC(=O)[C@H](CC(N)=O)NC(=O)[C@H](CCCCN)NC1=O [compound 76] (H-GIFSKLAGKKCKNLLISCLKG-NH2; linker 11-18 via Biphenyl(4,4'-CH2)2; N-terminus assumed)
IC50: 23 µg/mL (≈ 9.59 µM)
